The record followed here is patent EP1745781A1, “Combination of pyrazoline type cannabinoid receptor antagonist and statin” (LABORATORIOS DEL DR. ESTEVE, S.A., priority 2005, dated 2007).

Test [1] relates to Male NMRI mice. Kind of test: Mouse tetrad model: hot plate analgesia. Format: in vivo. As to conditions: for Agonistic effect A: Hot-Plate test: 5 mg/kg i.v.; for Antagonistic Effect A: Hot-Plate test: 5 mg/kg i.v. prior to Win 55212-2 in a dose of 1.25mg/kg i.v. An excerpt: (§1) II. In-vivo bioassay system for determination of cannabinoid activity
(§2) Substances with affinity for cannabinoid receptors are known to produce a wide range of pharmacological effects. It is also known that intravenous administration of a substance with affinity for cannabinoid receptors in mice produces analgesia , hypothermia, sedation and catalepsy. Individually, none of these effects can be considered as proof that a tested substance has affinity for cannabinoid-receptors, since all of these effects are common for various classes of centrally active agents. However, substances, which show all of these effects, i.e. substances that are active in this so-called tetrad model are considered to have affinity for the cannabinoid receptors. It has further been shown that cannabinoid receptor antagonists are higly effective in blocking the effects of a cannabinoid agonist in the mouse tetrad model.
The tetrad model is described, for example, in the publication of A. C. Howlett et al, international Union of Pharmacology XXVII. Classification of Cannabinoid Receptors, Pharmacol Rev 54, 161-202 , 2002 and David R. Compton et al., "In-vivo Characterization of a Specific Cannabinoid Receptor Antagonist (SR141716A) :Inhibition of Tetrahydrocannbinol- induced Responses and Apparent Agonist Activity", J. Pharmacol. Exp. Ther. 277 , 2, 586-594, 1996. The corresponding parts of the description are hereby incorporated by reference. […]
(§3) Before testing in the behavioral procedures given below, mice are acclimatized to the experimental setting. Pre-Treatment control values are determined for analgesia hot plate latency (in seconds), rectal temperature, sedation and catalepsy.
(§4) In order to determine the agonistic activty of the substance to be tested, the mice are injected intravenously with the substance to be tested or the vehicle alone. 15 minutes after injection, latency in hot plate analgesia is measured. Rectal temperature, sedation and catalepsy are measured 20 minutes after injection.
(§5) In order to determine the antagonistic activity the identical procedure is used as for the determination of the agonistic effects, but with the difference that the substance to be evaluated for its antagonistic activity is injectected 5 minutes before the intravenous injection of 1.25 mg/kg Win-55,212 a known cannabinoid-receptor agonist.
The hot plate analgesia is determined according to the method described in Woolfe D. et al. "The evaluation of analgesic action of pethidine hydrochloride (Demerol)", J. Pharmacol. Exp. Ther. 80, 300-307,1944. […]
The mice are placed on a hot plate (Harvard Analgesimeter) at 55 ± 0.5 °C until they show a painful sensation by licking their paws or jumping and the time for these sensations to occur is recorded. This reading is considered the basal value (B). […]

Test [2] deals with Male NMRI mice. Kind of test: Mouse tetrad model: catalepsy. Type of test: in vivo. As to conditions: for Agonistic effect C: Catalepsy: 5 mg/kg i.v.; for Antagonistic Effect C: Catalepsy: 5 mg/kg i.v. prior to Win 55212-2 in a dose of 1.25mg/kg i.v.
Description: as §1, §2
(§6) The tetrad model is described, for example, in the publication of A. C. Howlett et al, international Union of Pharmacology XXVII. Classification of Cannabinoid Receptors, Pharmacol Rev 54, 161-202 , 2002 and David R. Compton et al., "In-vivo Characterization of a Specific Cannabinoid Receptor Antagonist (SR141716A) :Inhibition of Tetrahydrocannbinol- induced Responses and Apparent Agonist Activity", J. Pharmacol. Exp. Ther. 277 , 2, 586-594, 1996. […]
as §3, §4, §5
Catalepsy is determined according to the method described in Alpermann H. G. et al. "Pharmacological effets of Hoe 249: A new potential antidepressant", Drugs Dev. […]
The cataleptic effect of the substance to be tested is evaluated according to the duration of catalepsy, whereby the animals are placed head downwards with their kinlegs upon the top of the wooden block. […]
The percentage of catalepsy is determined according ot the following formula: %Catalepsy = arithmetic mean/6 × 100 [formula]

The next test concerns the target T1, CB1-Receptor (Homo sapiens, UniProt P21554).
T1 construct: purchased Receptor Biology, Inc
Kind of test: In-vitro determination of affinity to CB1 receptor (radioligand [^3H]-CP55940). Type of test: binding. As for the experimental part: (§7) I. In-vitro determination of affinity to CB1/CB2-Receptors
(§8) The in-vitro determination of the affinity of the substituted pyrazoline compounds to CB1/CB2-Rezeptors is carried out as described in the publication of Ruth A. Ross, Heather C. Brockie et al., "Agonist-inverse agonist characterization at CB1 and CB2 cannabinoid receptors of L-759633. L759656 and AM630", British Journal of Pharmacology, 126, 665-672, (1999), whereby the transfected human CB1 and CB2 receptors of Receptor Biology, Inc. are used. The radioligand used for both receptors is [^3H]-CP55940. The respective parts of the description is hereby incorporated by reference and forms part of the present disclosure.

A further test deals with T2, CB2-Receptor (Homo sapiens, UniProt P34972).
T2 construct: purchased Receptor Biology, Inc
The test can be described thus: In-vitro determination of affinity to CB2 receptor (radioligand [^3H]-CP55940). Type of test: binding. Here is the method:
as §7, §8

The subject of test [3] is Male NMRI mice. Kind of test: Mouse tetrad model: sedation and ataxia. As to conditions: for Agonistic effect D: Sedation: 5 mg/kg i.v.; for Antagonistic Effect D: Sedation: 5 mg/kg i.v. prior to Win 55212-2 in a dose of 1.25mg/kg i.v. Type of test: in vivo.
Description: as §1, §2
The tetrad model is described, for example, in the publication of A. C. Howlett et al, international Union of Pharmacology XXVII. Classification of Cannabinoid Receptors, Pharmacol Rev 54, 161-202 , 2002 and David R. Compton et al., "In-vivo Characterization of a Specific Cannabinoid Receptor Antagonist (SR141716A) :Inhibition of Tetrahydrocannbinol- induced Responses and Apparent Agonist Activity", J. Pharmacol. Exp. Ther. 277 , 2, 586-594, 1996. The corresponding parts of the description are hereby incorporated by reference.
Male NMRI mice with a weight of 20-30 g (Harlan, Barcelona, Spain) are used in all of the following experiments.
as §3, §4, §5
Determination of sedation and ataxia
Sedation and ataxia is determined according to the method described in Desmet L. K. C. et al. "Anticonvulsive properties of Cinarizine and Flunarizine in Rats and Mice", Arzneim. -Forsch. (Frug Res) 25, 9, 1975. […]
The percentage of sedation is determined according to the formula: %of sedation = arithmetic mean/3 × 100 [formula]

The subject of test [4] is Male NMRI mice. The test can be described thus: Mouse tetrad model: hypothermia. Type of test: in vivo. As to conditions: for Agonistic effect B: Hypothermia: 5 mg/kg i.v.; for Antagonistic Effect B: Hypothermia: 5 mg/kg i.v. prior to Win 55212-2 in a dose of 1.25mg/kg i.v.
Description: as §1, §2, §6, §3, §4, §5
Hypothermia is determined according to the method described in David R. Compton et al. "In-vivo Characterization of a Specific Cannabinoid Receptor Antagonist (SR141716A) Inhibition of Tetrahydrocannbinol- induced Responses and Apparent Agonist Activity", J. Pharmacol Exp Ther. 277 , 2, 586-594, 1996. […]
The base-line rectal temperatures are determined with a thermometer (Yello Springs Instruments Co., Panlabs) and a thermistor probe inserted to 25mm before the administration of the substance to be tested. […]

A value given as a limit tells only on which side of the number the result lay.

T2 sequence (P34972 whole entry): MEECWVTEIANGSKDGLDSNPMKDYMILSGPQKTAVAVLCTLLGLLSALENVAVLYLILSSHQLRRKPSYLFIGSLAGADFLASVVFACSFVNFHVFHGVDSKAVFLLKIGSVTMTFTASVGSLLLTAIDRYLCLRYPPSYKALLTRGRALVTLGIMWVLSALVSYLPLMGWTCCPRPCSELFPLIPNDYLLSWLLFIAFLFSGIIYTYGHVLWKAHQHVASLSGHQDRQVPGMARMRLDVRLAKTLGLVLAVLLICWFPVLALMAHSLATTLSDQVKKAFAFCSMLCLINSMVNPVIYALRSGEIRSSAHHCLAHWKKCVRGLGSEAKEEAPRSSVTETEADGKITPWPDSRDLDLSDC
T1 sequence (P21554 whole entry): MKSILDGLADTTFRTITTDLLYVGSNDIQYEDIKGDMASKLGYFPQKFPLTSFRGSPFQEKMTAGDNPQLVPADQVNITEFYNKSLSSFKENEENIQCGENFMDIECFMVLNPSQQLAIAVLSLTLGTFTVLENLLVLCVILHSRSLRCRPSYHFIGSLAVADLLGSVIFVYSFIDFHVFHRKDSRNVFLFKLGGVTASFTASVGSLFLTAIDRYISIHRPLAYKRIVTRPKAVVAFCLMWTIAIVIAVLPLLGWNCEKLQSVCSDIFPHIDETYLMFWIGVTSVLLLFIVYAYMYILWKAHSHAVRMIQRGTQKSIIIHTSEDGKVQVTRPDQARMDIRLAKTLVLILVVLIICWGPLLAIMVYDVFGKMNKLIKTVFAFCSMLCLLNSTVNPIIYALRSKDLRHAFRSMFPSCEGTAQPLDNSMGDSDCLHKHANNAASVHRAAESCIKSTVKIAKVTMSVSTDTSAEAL

On to `O=C(NN1CCCCC1)C1=NN(c2ccc(Cl)cc2Cl)C(c2ccc(Cl)cc2)C1` (stereo not shown) [Example 1, N-piperidinyl-5-(4-chlorophenyl)-1-(2,4-dichlorophenyl)-4,5-dihydro-1H-pyrazole-3-carboxamide], for which, in the test on Male NMRI mice [1], the “Agonistic effect A: Hot-Plate test” value stood at 0 and the “Antagonistic Effect A: Hot-Plate test” value was 74. Besides, in the test with Male NMRI mice [2], the “Agonistic effect C: Catalepsy” value was 0 and the “Antagonistic Effect C: Catalepsy” value is on record as 100. Also, the Ki at CB1-Receptor is less than 25 nM. On CB2-Receptor, this compound yielded a Ki of more than 1000 nM. Moreover, in the test on Male NMRI mice [3], the “Agonistic effect D: Sedation” value stood at 0 and the “Antagonistic Effect D: Sedation” value is reported as 100. Also, in the test on Male NMRI mice [4], the “Agonistic effect B: Hypothermia” value stood at 0 and the “Antagonistic Effect B: Hypothermia” value was found to be 100.
Consider `O=C(C1=NN(c2ccc(Cl)cc2Cl)C(c2ccc(Cl)cc2)C1)N1CCCCC1` (stereo not shown) [Example 5, [5-(4-Chloro-phenyl)-1-(2,4-dichloro-phenyl)-4,5-dihydro-1H-pyrazol-3-yl]-piperidin-1-yl-methanone], for which, in the test with Male NMRI mice [1], the “Agonistic effect A: Hot-Plate test” value turned out to be 0 and the “Antagonistic Effect A: Hot-Plate test” value is 50. For the same compound, in the test with Male NMRI mice [2], the “Agonistic effect C: Catalepsy” value came out at 0 and the “Antagonistic Effect C: Catalepsy” value is 20. The inhibitory constant (Ki) at CB2-Receptor was approximately 1000 nM. In the test on Male NMRI mice [3], the “Agonistic effect D: Sedation” value is 0 and the “Antagonistic Effect D: Sedation” value amounted to 20. Moreover, in the test with Male NMRI mice [4], the “Agonistic effect B: Hypothermia” value is reported as 50 and the “Antagonistic Effect B: Hypothermia” value is listed as 40.

Usually Ki stands for the dissociation constant of the complex between target and ligand, obtained from inhibition or displacement. A low value points to higher affinity.
